# ChEMBL document CHEMBL4616591, “Propargylamine-derived multi-target directed ligands for Alzheimer's disease therapy” (Bioorg Med Chem Lett, 2020)
# How the values were obtained:
# Acetylcholinesterase [1] = target: Acetylcholinesterase (Torpedo californica, UniProt P04058); assay: Inhibition of Torpedo californica AChE using acetylthiocholine chloride as substrate peincubated for 15 mins followed by substrate addition measured after 5 mins by Ellman's method; design: species or system Tetronarce californica
# Acetylcholinesterase (Torpedo californica, UniProt P04058), sequence (P04058 whole entry): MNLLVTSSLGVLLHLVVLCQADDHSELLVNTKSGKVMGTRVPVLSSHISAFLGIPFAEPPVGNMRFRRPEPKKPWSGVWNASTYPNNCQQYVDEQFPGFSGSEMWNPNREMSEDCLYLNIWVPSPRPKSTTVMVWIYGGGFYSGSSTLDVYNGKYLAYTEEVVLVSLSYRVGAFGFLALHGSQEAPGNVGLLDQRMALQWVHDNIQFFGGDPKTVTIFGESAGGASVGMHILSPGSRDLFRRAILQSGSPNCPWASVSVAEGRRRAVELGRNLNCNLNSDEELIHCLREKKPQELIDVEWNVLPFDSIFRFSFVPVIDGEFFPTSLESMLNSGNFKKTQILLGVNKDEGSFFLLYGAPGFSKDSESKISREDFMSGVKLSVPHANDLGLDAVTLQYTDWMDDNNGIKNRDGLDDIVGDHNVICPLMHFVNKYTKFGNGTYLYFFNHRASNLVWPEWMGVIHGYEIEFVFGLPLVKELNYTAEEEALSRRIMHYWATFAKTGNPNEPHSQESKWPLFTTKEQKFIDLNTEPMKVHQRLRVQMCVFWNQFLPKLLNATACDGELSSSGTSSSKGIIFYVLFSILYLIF
# [2] = target: T1, Amine oxidase [flavin-containing] A (Rattus norvegicus, UniProt P21396); assay: In-vivo inhibition of MAO A in rat brain at 26 mg/kg, po relative to control; type: functional, organism-based
# T1 sequence (P21396 whole entry): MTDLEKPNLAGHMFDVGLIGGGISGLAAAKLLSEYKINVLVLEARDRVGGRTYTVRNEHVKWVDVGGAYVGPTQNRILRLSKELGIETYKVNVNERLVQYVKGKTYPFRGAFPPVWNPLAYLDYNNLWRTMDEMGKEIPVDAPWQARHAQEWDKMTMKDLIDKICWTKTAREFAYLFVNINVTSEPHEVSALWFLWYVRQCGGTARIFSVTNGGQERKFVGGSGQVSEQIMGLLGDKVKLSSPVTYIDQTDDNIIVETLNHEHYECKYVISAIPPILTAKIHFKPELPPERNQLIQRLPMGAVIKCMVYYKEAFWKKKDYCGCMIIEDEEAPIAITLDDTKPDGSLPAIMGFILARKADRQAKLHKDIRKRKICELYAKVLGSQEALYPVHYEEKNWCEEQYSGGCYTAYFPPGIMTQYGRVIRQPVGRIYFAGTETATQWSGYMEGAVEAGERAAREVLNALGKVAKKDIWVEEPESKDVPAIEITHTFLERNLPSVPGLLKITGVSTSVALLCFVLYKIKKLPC
# [3] = target: T2, Amine oxidase [flavin-containing] B (Rattus norvegicus, UniProt P19643); assay: In-vivo inhibition of MAO B in rat brain at 26 mg/kg, po relative to control; type: functional, organism-based
# T2 sequence (P19643 whole entry): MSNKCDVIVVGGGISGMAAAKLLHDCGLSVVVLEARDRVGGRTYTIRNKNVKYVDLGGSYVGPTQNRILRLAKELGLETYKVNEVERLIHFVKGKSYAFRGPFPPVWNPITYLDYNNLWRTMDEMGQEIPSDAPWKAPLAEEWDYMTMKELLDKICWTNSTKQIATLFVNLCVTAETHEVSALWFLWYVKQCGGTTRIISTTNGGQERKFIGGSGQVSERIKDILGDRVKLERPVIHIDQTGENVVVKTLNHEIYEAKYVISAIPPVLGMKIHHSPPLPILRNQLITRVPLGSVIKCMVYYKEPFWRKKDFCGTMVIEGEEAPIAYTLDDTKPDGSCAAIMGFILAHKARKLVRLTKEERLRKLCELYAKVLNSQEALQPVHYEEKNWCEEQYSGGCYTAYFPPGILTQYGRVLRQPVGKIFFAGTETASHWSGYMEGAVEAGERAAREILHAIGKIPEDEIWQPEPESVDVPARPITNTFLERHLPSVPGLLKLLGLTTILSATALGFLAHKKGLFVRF
# [4] = target: Amyloid-beta precursor protein (Homo sapiens) (UniProt P05067); assay: Inhibition of self-induced amyloid beta (1 to 42) (unknown origin) aggregation at 100 uM after 24 hrs by ThT fluorescence assay relative to control
# Amyloid-beta precursor protein (Homo sapiens), sequence (P05067 whole entry): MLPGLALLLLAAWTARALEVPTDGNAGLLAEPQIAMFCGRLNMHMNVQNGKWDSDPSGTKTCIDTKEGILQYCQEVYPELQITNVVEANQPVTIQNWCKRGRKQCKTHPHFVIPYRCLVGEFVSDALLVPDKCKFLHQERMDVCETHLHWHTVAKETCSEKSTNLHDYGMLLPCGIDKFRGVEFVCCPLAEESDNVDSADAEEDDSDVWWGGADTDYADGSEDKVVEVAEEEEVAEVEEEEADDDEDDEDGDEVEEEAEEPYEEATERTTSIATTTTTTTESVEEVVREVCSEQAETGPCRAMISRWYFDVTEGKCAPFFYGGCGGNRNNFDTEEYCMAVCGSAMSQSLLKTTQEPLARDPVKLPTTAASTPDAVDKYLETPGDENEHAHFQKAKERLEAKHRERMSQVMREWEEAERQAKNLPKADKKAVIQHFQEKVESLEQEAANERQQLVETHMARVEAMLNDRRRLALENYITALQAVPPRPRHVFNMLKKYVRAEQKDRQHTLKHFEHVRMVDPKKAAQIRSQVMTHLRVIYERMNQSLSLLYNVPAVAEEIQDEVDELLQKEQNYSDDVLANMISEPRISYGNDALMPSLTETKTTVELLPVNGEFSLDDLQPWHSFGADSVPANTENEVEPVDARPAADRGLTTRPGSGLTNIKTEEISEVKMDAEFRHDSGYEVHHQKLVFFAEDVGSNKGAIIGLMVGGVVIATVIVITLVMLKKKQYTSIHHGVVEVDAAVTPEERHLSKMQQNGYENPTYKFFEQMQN
# [5] = target: T3, Amine oxidase [flavin-containing] A (Homo sapiens, UniProt P21397); assay: Inhibition of human MAO A
# T3 sequence (P21397 whole entry): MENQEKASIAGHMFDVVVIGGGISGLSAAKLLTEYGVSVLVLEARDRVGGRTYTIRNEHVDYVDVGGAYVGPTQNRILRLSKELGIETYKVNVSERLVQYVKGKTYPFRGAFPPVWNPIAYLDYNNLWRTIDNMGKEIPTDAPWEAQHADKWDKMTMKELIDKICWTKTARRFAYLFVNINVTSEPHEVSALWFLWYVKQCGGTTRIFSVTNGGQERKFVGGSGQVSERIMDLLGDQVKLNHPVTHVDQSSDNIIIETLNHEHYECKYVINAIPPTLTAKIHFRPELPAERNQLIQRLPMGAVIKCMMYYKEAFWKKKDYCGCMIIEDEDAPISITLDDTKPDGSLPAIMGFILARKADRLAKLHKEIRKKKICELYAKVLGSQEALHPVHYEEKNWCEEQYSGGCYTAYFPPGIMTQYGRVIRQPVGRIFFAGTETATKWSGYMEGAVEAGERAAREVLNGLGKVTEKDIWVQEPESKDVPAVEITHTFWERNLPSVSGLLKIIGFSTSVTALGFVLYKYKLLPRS
# [6] = target: T4, Amine oxidase [flavin-containing] B (Homo sapiens, UniProt P27338); assay: Inhibition of human MAO B
# T4 sequence (P27338 whole entry): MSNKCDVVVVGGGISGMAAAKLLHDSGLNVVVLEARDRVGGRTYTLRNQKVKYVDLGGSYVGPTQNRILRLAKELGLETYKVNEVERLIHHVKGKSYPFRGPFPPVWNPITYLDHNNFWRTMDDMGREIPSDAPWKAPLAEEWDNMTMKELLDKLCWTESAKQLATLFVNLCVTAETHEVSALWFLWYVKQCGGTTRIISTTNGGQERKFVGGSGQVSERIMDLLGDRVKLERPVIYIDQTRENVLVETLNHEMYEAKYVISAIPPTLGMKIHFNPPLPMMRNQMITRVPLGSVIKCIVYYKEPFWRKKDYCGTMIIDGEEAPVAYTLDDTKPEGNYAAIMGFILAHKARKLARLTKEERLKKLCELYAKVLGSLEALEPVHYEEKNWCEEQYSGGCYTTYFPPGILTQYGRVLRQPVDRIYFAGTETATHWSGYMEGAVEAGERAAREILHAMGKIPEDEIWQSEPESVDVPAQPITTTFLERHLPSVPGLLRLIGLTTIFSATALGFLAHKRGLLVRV
# Cholinesterase [7] = target: T5, Cholinesterase (Equus caballus, UniProt P81908); assay: Inhibition of equine serum BuChE by Ellman's method
# T5 sequence (P81908 whole entry): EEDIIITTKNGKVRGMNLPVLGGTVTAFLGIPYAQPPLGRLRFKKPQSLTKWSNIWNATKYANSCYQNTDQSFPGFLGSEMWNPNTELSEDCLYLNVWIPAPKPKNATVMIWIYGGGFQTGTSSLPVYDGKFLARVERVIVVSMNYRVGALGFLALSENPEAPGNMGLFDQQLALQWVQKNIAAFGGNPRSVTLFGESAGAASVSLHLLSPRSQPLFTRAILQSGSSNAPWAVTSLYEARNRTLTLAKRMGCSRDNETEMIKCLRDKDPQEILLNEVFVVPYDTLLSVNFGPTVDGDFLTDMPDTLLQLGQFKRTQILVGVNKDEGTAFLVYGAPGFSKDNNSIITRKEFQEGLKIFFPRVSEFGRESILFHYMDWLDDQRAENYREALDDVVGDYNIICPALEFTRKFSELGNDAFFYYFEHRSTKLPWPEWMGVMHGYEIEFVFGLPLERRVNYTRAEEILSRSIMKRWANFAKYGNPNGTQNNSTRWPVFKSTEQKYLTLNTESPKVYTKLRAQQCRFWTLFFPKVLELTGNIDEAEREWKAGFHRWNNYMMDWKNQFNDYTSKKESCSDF
# Acetylcholinesterase [8] = target: T6, Acetylcholinesterase (Electrophorus electricus, UniProt O42275)
# T6 sequence (O42275 whole entry): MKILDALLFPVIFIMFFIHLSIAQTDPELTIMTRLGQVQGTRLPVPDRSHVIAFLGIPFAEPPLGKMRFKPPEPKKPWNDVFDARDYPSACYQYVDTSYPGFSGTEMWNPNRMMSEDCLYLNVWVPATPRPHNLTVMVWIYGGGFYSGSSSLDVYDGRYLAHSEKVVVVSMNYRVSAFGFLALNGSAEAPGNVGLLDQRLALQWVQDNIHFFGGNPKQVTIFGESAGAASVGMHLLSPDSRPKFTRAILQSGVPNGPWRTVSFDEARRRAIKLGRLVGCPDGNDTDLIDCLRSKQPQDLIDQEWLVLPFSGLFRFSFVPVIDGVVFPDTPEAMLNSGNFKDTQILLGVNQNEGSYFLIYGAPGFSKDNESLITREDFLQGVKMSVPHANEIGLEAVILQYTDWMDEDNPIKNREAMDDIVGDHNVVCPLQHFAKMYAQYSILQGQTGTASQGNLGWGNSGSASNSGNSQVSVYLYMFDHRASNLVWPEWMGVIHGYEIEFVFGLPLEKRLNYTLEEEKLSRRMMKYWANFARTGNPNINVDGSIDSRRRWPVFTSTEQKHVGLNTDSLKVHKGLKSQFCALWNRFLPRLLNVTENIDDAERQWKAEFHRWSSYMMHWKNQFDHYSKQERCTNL
# Description: (§1) Inhibition of electric eel AChE by Ellman's method
# Cholinesterase [9] = target: T5, Cholinesterase; assay: Inhibition of equine serum BuChE using butylthiocholine chloride as substrate peincubated for 15 mins followed by substrate addition measured at 1 min interval by Ellman's method
# Acetylcholinesterase [10] = target: T6, Acetylcholinesterase; remark: listed apart in the source
# Description: Inhibition of electric eel AChE using acetylthiocholine chloride as substrate peincubated for 15 mins followed by substrate addition measured at 1 min interval by Ellman's method
# Acetylcholinesterase [11] = target: T7, Acetylcholinesterase (Homo sapiens, UniProt P22303); assay: Inhibition of human AChE using acetylthiocholine chloride as substrate peincubated for 15 mins followed by substrate addition measured at 1 min interval by Ellman's method
# T7 sequence (P22303 whole entry): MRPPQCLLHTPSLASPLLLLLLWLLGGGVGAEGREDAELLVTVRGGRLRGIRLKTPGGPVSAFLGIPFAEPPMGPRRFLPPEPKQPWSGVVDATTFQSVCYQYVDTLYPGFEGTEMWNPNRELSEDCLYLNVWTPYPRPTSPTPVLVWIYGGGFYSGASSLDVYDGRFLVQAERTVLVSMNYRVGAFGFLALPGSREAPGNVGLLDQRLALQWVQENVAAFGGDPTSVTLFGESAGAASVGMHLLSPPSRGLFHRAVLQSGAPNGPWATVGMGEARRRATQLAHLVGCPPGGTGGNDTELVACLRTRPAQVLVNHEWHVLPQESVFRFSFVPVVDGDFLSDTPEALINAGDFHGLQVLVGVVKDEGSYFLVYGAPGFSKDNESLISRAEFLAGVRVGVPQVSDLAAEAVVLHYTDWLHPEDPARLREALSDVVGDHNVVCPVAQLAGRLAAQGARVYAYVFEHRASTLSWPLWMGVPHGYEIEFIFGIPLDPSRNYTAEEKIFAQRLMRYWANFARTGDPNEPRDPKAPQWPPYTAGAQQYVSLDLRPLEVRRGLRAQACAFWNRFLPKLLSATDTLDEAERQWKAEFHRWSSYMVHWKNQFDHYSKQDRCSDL
# Acetylcholinesterase [12] = target: T6, Acetylcholinesterase; remark: listed apart in the source
# Description: as §1
# Acetylcholinesterase [13] = target: T7, Acetylcholinesterase; conditions: 0.6 mg/kg
# [14] = target: Cholinesterase (Homo sapiens) (UniProt P06276); conditions: 0.6 mg/kg
# Cholinesterase (Homo sapiens), sequence (P06276 whole entry): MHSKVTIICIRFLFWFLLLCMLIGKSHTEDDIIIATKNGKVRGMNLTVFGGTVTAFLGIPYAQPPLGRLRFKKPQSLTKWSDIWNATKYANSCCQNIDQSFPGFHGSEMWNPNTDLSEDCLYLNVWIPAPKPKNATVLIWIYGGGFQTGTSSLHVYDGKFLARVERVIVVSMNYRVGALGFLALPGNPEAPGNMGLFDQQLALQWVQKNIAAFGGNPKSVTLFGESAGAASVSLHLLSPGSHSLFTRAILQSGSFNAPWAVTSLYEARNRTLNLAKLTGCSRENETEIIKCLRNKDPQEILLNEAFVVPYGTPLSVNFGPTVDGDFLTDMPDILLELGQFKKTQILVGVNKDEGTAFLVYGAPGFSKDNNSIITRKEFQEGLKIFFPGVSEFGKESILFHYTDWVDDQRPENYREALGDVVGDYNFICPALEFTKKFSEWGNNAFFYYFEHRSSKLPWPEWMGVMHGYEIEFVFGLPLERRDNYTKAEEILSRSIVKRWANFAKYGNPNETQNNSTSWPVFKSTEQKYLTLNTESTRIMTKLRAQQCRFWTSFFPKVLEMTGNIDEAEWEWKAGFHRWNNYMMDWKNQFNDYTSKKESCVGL
# [15] = target: Amyloid-beta precursor protein (Homo sapiens) (UniProt P05067); assay: Inhibition of self-induced amyloid beta (1 to 42) (unknown origin) aggregation at 100 uM after 24 hrs in presence of copper by ThT fluorescence assay relative to control
smiles,measurement,setting,value
C#CCSC[C@@H](N)C(=O)NCCCCNc1c2c(nc3ccccc13)CCCC2,IC50,Acetylcholinesterase [1],1210 nM
C#CCN[C@@H]1CCc2ccc(OC(=O)N(C)CC)cc21 [LADOSTIGIL],inhibition at 26 mg/kg,[2],70%
same,inhibition at 26 mg/kg,[3],70%
C#CCSCC(NC(=O)CCCNc1c2c(nc3ccccc13)CCCC2)C(=O)Nc1nc2ccccc2s1 (stereo unspecified),IC50,Acetylcholinesterase [1],250 to 280 nM
same,inhibition,[4],77.2%
C#CCN(C)Cc1cc2cc(OCCCC3CCN(Cc4ccccc4)CC3)ccc2n1C,IC50,[5],5.44 nM
same,IC50,[6],177 nM
C#CCN(C)c1nc(NCCCCC2CCN(Cc3ccccc3)CC2)c(C#N)cc1C#N,IC50,Cholinesterase [7],600 nM
same,IC50,Acetylcholinesterase [8],1.1 nM
C#CCN(CC#C)CCNc1c2c(nc3ccccc13)CCCC2,IC50,Cholinesterase [9],353 nM
same,IC50,Acetylcholinesterase [10],339 nM
C#CCSCC(NC(=O)CCCCCNc1c2c(nc3cc(Cl)ccc13)CCCC2)C(=O)Nc1nc2ccccc2s1 (stereo unspecified),IC50,Acetylcholinesterase [1],250 to 280 nM
C#CCSCC(NC(=O)CCCCCNc1c2c(nc3ccccc13)CCCC2)C(=O)Nc1nc2ccccc2s1 (stereo unspecified),IC50,Acetylcholinesterase [1],250 to 280 nM
C=CCSCC(NC(=O)CCCNc1c2c(nc3ccccc13)CCCC2)C(=O)Nc1nc2ccccc2s1 (stereo unspecified),IC50,Acetylcholinesterase [1],250 to 280 nM
C#CCNc1c2c(nc3ccccc13)CCCC2,IC50,Cholinesterase [9],77.6 nM
same,IC50,Acetylcholinesterase [11],50.7 nM
same,IC50,Acetylcholinesterase [10],51.3 to 106 nM
C#CCN(C)Cc1cc2cc(OC)c(O)cc2oc1=O,IC50,Acetylcholinesterase [12],2780 to 14400 nM
CCN(C)C(=O)Oc1cccc([C@H](C)N(C)C)c1,inhibition,Acetylcholinesterase [13],40%
same,inhibition,[14],25%
C=CCSCC(NC(=O)CCCCCNc1c2c(nc3cc(Cl)ccc13)CCCC2)C(=O)Nc1nc2ccccc2s1 (stereo unspecified),IC50,Acetylcholinesterase [1],280 nM
Nc1c2c(nc3cc(Cl)ccc13)CCCC2,IC50,Acetylcholinesterase [10],23.5 nM
C#CCSCC(NC(=O)CCCNc1c2c(nc3cc(Cl)ccc13)CCCC2)C(=O)Nc1nc2ccccc2s1 (stereo unspecified),IC50,Acetylcholinesterase [1],250 nM
same,inhibition,[4],24.1%
same,inhibition,[15],37.6%
C#CCN(C)Cc1cc2ccc(OC)cc2oc1=O,IC50,Acetylcholinesterase [12],2780 to 14400 nM
C=CCSCC(NC(=O)CCCCCNc1c2c(nc3ccccc13)CCCC2)C(=O)Nc1nc2ccccc2s1 (stereo unspecified),IC50,Acetylcholinesterase [1],250 to 280 nM
same,inhibition,[4],78.2%
C=CCSC[C@@H](N)C(=O)NCCCNc1c2c(nc3ccccc13)CCCC2,IC50,Acetylcholinesterase [1],880 nM
C#CCNCCNc1c2c(nc3ccccc13)CCCC2,IC50,Acetylcholinesterase [10],226 nM
C#CCN(CC#C)c1c2c(nc3cc(Cl)ccc13)CCCC2,IC50,Cholinesterase [9],5380 nM
same,IC50,Acetylcholinesterase [10],884 nM
C=CCSC[C@@H](N)C(=O)NCCCNc1c2c(nc3cc(Cl)ccc13)CCCC2,IC50,Acetylcholinesterase [1],300 nM
C#CCSC[C@@H](N)C(=O)NCCCNc1c2c(nc3cc(Cl)ccc13)CCCC2,IC50,Acetylcholinesterase [1],560 nM
C#CCN(C)Cc1cc2ccccc2oc1=O,IC50,Acetylcholinesterase [12],2780 to 14400 nM
C#CCNc1c2c(nc3cc(Cl)ccc13)CCCC2,IC50,Cholinesterase [9],83.5 nM
same,IC50,Acetylcholinesterase [11],9.4 nM
same,IC50,Acetylcholinesterase [10],11.2 nM
C=CCSCC(NC(=O)CCCNc1c2c(nc3cc(Cl)ccc13)CCCC2)C(=O)Nc1nc2ccccc2s1 (stereo unspecified),IC50,Acetylcholinesterase [1],250 to 280 nM
same,inhibition,[4],31.6%
same,inhibition,[15],56.6%
